Consider 3 compounds from patent US20060166360A1, “Compositions, solutions, and methods used for transplantation” (The General Hospital Corporation, priority 2002, published 2006).

“Also recorded” adds a separate entry of the source.

Data set [1] deals with IL-12p70, TNF-α and IL-10. Put plainly: Serum cytokine levels (ELISA) after fatty liver transplantation. As to conditions: donor GdCl3 pretreatment. The class given is in vivo, rat. The protocol: (§1) Donor animals were divided into three groups; heat shock preconditioning (HPc) group, sham HPc (Sham) group, and gadolinium chloride (GdCl3) group. In the HPc group, rats were anesthetized and placed in a waterproof bag that was then immersed in a 43° C. water bath to elevate the core body temperature (measured via a rectal digital thermometer) to 42-42.5° C. Animals were maintained at that temperature for 10 min and then removed from the warm bath. Animals then received 10 ml/kg intraperitoneal saline injection and were allowed to recover with free access to food and water. Animals in the Sham and GdCl3 groups underwent the same procedures except that they were immersed in a 37° C. bath (sham HPc). In the GdCl3 group, Kupffer cell deactivation was achieved by two 20 mg/kg GdCl3 (Sigma, St. Louis, Mo.) intravenous injection 48 and 24 hours before donor liver harvesting. […]
(§2) Isogenic orthotopic liver transplantation was performed as described by Kamada and Calne (Kamada et al., Transplantation 28:47-50, 1979). […] For survival studies, the animals were returned to standard housing facilities and monitored for up to one week. […]
(§3) To assess liver injury, alanine aminotransferase (ALT) was measured in serum samples using a commercially available kit (Sigma). TNF-α, IL-10, IL-4, IL-12, and IFN-γ levels in serum and cell culture supernatant were determined by Enzyme-linked immunosorbent assay (ELISA). […]
In general terms: In an ELISA, binding on a coated surface is turned into a signal by an enzyme label.

For data set [2], the system named is intrahepatic neutrophil accumulation. Put plainly: Myeloperoxidase content of liver tissue (neutrophil accumulation) after transplantation. The class given is in vivo, rat. The protocol: as §1, with “HPc).” for “HPc). In the GdCl3 group, Kupffer cell deactivation was achieved by two 20 mg/kg GdCl3 (Sigma, St. Louis, Mo.) intravenous injection 48 and 24 hours before donor liver harvesting.”
as §2
The presence of myeloperoxidase (MPO), enzyme specific for neutrophil (and some macrophages), was used as an index of intrahepatic neutrophil accumulation. […] The change in absorbance was measured by spectrophotometry at 450 nm. One unit of MPO activity was defined as the quantity of enzyme degrading 1 μM peroxide per minute at 25° C. per gram of tissue.

Data set [3] has as its system HSP72 and HO-1. Put plainly: Western blot of HSP72 and HO-1 in hepatocytes, CD4+ and CD8+ T cells of donor fatty liver. The class given is in vivo, rat. The note with it: at time of harvesting; GdCl3 20 mg/kg i.v. 48 and 24 hours before harvesting. As for the experimental part: (§4) Donor animals were divided into three groups; heat shock preconditioning (HPc) group, sham HPc (Sham) group, and gadolinium chloride (GdCl3) group. In the HPc group, rats were anesthetized and placed in a waterproof bag that was then immersed in a 43° C. water bath to elevate the core body temperature (measured via a rectal digital thermometer) to 42-42.5° C. Animals were maintained at that temperature for 10 min and then removed from the warm bath. Animals then received 10 ml/kg intraperitoneal saline injection and were allowed to recover with free access to food and water. Animals in the Sham and GdCl3 groups underwent the same procedures except that they were immersed in a 37° C. bath (sham HPc). In the GdCl3 group, Kupffer cell deactivation was achieved by two 20 mg/kg GdCl3 (Sigma, St. Louis, Mo.) intravenous injection 48 and 24 hours before donor liver harvesting. In the Sham and HPc groups, sterile nonpyrogenic saline was used as instead of GdCl3 solution. Donor livers were harvested 24 hours after HPc or sham HPc. In some experiments, rats were pretreated with 5 mg/kg i.m. Cyclosporine A (CyA; Sigma) 6 hours before donor liver harvesting.
Donor rats were sacrificed up to 240 hours after HPc. […] Protein signals were visualized by chemiluminescence (Pierce, Rockford, Ill.) and recorded on a GS282 Scanner (BioRad, Hercules, Calif.).

For data set [4], the system named is transplanted fatty livers. Put plainly: Histology of transplanted fatty livers. The class given is in vivo, rat. The note with it: 3 hours after transplantation, compared to Sham group livers. As for the experimental part: as §4, with “In some experiments, rats were pretreated with 5 mg/kg i.m. Cyclosporine A (CyA; Sigma) 6 hours before donor liver harvesting.” left out
as §2

Data set [5] relates to recipient rats. Put plainly: Survival of recipient rats after fatty liver transplantation. The class given is in vivo, rat. The note with it: up to 1 week after transplantation, vs Sham group. As for the experimental part: as §4, with “In some experiments, rats were pretreated with 5 mg/kg i.m. Cyclosporine A (CyA; Sigma) 6 hours before donor liver harvesting.” left out
as §2

Data set [6] has as its system IFN-γ mRNA. Put plainly: RT-PCR of IFN-γ mRNA in purified liver T cells after transplantation. The class given is in vivo, rat. The note with it: 24 hours after transplantation; donor GdCl3 pretreatment. The protocol: as §4
Three hours or 24 hours after liver transplantation, transplanted liver were perfused with sterile PBS through the portal vein to wash out all remaining peripheral blood and then meshed with stainless steel mesh. […]

Data set [7] has as its system liver I/R injury in steatotic liver transplantation. Put plainly: Serum ALT after fatty liver transplantation. The note with it: donor GdCl3 pretreatment. The class given is in vivo, rat. As for the experimental part:
as §4
Isogenic orthotopic liver transplantation was performed as described by Kamada and Calne (Kamada et al., Transplantation 28:47-50, 1979). Donor livers were harvested 3, 6, 24, 48, or 72 hours after HPc. Briefly, the bile duct was cannulated with a short intraluminal polyethylene stent. […] The infrahepatic and suprahepatic vena cava, including part of the diaphragm, were transected. […] For survival studies, the animals were returned to standard housing facilities and monitored for up to one week. […]
as §3

Data set [8] has as its system liver CD4+ and CD8+ T cells. Put plainly: Flow cytometry of liver T cells after transplantation. The class given is in vivo, rat. The note with it: for CD3+CD4+ relative number of T cells in the liver / CD3+CD8+ relative number of T cells in the liver: mean ± SD. The protocol:
as §4
Three hours or 24 hours after liver transplantation, transplanted liver were perfused with sterile PBS through the portal vein to wash out all remaining peripheral blood and then meshed with stainless steel mesh. After the coarse pieces were removed by centrifugation at 50 g for 1 min, the cell suspensions were again centrifuged, resuspended in 8 mL of 45% Percoll (Sigma), and layered on 5 mL of 67.5% Percoll. The gradients were centrifuged at 600 g at 20° C. for 20 min. Lymphocytes at the interface were harvested and washed twice with PBS. CD4^+ or CD8^+ T cells were purified by Rat T cell CD4 or CD8 column kit (R&D systems, Minneapolis, […].) from the harvested liver lymphocytes. The purity of sorted cells was more than 95%.
For 3-color analysis, liver lymphocytes were incubated with saturating amounts of phycoerythrin-conjugated anti-rat CD3α mAb (Pharmingen, San Diego, Calif.) and fluorescein isothiocyanate-conjugated anti-rat CD4 mAb (Pharmingen) for 30 min. Cells were analyzed with a FACSCalibur flow cytometer (Becton Dickinson, San Jose, Calif.). We carefully gated cells by forward and side light scattering for the liver lymphocytes. The data were analyzed using CyQuest software (Becton Dickinson).
A general note: Flow cytometry measures light scatter and fluorescence of single cells or particles in a stream.

Data set [9] concerns liver CD4+ T cells. Put plainly: IFN-γ production by liver CD4+ T cells on anti-CD3 mAb-coated plates (ELISA). The class given is cell-based, rat. The note with it: 24 hours after transplantation; donor GdCl3 pretreatment. The protocol:
as §4
Liver lymphocytes were obtained by the same method previously described. […] IFN-γ and IL-4 levels in the culture supernatants were determined by ELISA.

In data set [10] the test system is steatotic hepatocytes. Put plainly: Defatting of steatotic cultured hepatocytes with defatting media. The class given is cell-based, rat. As to conditions: for effect on the defatting process (fat reduction): agent added in high insulin containing media; for effect on the defatting process (lipid removal): agent added in low insulin-containing medium. As for the experimental part:
It has previously been shown that collagen-sandwiched adult rat hepatocytes which are seeded and maintained in standard hepatocyte culture medium and then exposed to either rat or human plasma become severely steatotic within 24 hours with a concomitant reduction in liver-specific functions (Matthew et al., Biotechnol. Bioeng. 51: 100-111, 1995; Stefanovich et al., J. Surg. Res. 66: 57-63, 1996).
In the next set of experiments, we induced steatosis in hepatocytes by exposing them to high insulin levels followed by plasma for 2 days, and attempted to defat them using the following conditions: plasma supplemented with amino acids and low insulin levels; culture medium containing high insulin ([…]); culture medium containing low insulin (50 μU/mL) levels. We then measured the fraction of remaining triglycerides after 1 and 2 days of treatment. […] The triglyceride removal kinetic data in Table 2 was used to calculate a defatting rate for each defatting condition. For this purpose, the fraction of initial triglyceride remaining was plotted as a function of time on a semi-log plot, which yielded linear curves (not shown). The slopes of these lines, which correspond to the first order rate of decay or triglyceride clearance from the cells during defatting, are shown in Table 2 for each defatting condition tested. From these values, we can predict the fraction of intracellular lipid remaining after any treatment time using the simple equation: Triglyceride Fraction Remaining=100e^−[RateConstant][TreatmentTime] (equation 1)

As for `[Cl][Gd]([Cl])[Cl]` [GdCl3, gadolinium chloride], the “serum IL-12, TNF-α and IL-10 levels” value in [1] (3 hours after transplantation) is “moderated the initial increase in IL-12, TNF-α, and IL-10 significantly; also recorded: suppressed; also recorded: prevented the serum release of IL-12, TNF-α, and IL-10”. In addition, the “serum TNF-α levels” value in data set [1] (24 hours after transplantation) was “not significantly different from that of liver controls”. Besides, in data set [2] (3 hours after transplantation), the “MPO levels of liver tissue” value is listed as “almost similar with no significant difference”. Further, the “MPO levels of liver tissue / neutrophil accumulation” value in data set [2] (24 hours after transplantation) was “no difference between the Sham group and the GdCl3-treated group; also recorded: did not suppress liver injury or neutrophil accumulation”. Besides, in data set [3], the “HSP72 and HO-1 expression in hepatocytes, CD4+ and CD8+ T cells” value is reported as “neither HSP72 nor HO-1 was detected”. In addition, in [4], the “hemorrhagic injury (histology)” value is “reduced hemorrhagic injury”. Moreover, the recipient survival rate result in data set [5] is “no significant difference; also recorded: did not improve the recipient survival rate”. For the same compound, in data set [6], the “expression level of IFN-γ mRNA in isolated CD3+ CD4+ cells” value was “much higher than that from HPc group” and the “expression level of IFN-γ mRNA in isolated CD3+ CD8+ cells” value was “remained low in all three groups”. For the same compound, the “serum ALT levels” value in data set [7] (3 hours after transplantation, 12 hours cold preservation) is reported as “significantly lower than that of Sham group”. Further, the liver injury result in [7] (24 hours after transplantation) is recorded as “did not suppress liver injury”. The “protection against I/R injury by phase” value in [7] (acute (3 hours) and subacute (24 hours) phase) is given as “only protected I/R injury in the acute phase”. Besides, in data set [8] (3 hr after transplantation), the “CD3+CD4+ relative number of T cells in the liver” value was 8.4 ± 2.7 ×10^5 and the “CD3+CD8+ relative number of T cells in the liver” value is 4.2 ± 1.2 ×10^5. In addition, in data set [8] (24 hr after transplantation), the “CD3+CD4+ relative number of T cells in the liver” value is 7.2 ± 2.2 ×10^5 and the “CD3+CD8+ relative number of T cells in the liver” value is given as 5.6 ± 2.3 ×10^5. Further, in [8] (any stage following transplantation), the “numbers of CD3+ CD8+ cells in the liver between groups” value is reported as “no difference”. For the same compound, the “IFN-γ production by liver CD4+ T cells” value in [9] is given as “did not suppress activation of or IFN-γ production”.

Take hepatocyte growth factor: in data set [10], the “effect on the defatting process (fat reduction)” value was “Some fat-reducing effects were seen” and the “effect on the defatting process (lipid removal)” value is reported as “did not further enhance lipid removal”.

Consider leptin, for which, in data set [10], the “effect on the defatting process (fat reduction)” value is listed as “Some fat-reducing effects were seen” and the “effect on the defatting process (lipid removal)” value is reported as “did not further enhance lipid removal”.
